According to patent US7265152B2 (ViroPharma Incorporated, priority 2002, dated 2007):
pEC50, pIC50: −log10 of the molar value.

Key:
[1] = test system: HCV replicon (BB7 sequence) in Huh-7-Clone A cells; assay: HCV replicon assay: ELISA of NS5A protein in replicon-containing cells (Inhibition of Viral RNA Replication); assay type: cell-based; details: Hepatitis C virus; HCV replicon assay; ranges of 50% effective concentration (EC50); read-out: Replicon
Summary of the method: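 Huh-7-Clone A cells carrying subgenomic BB7 HCV replicon (G418-selectable) incubated 72 h with compound. NS5A protein quantified by cell ELISA: glutaraldehyde fixation, anti-NS5A monoclonal plus HRP secondary, TMB read at OD 650 nm. EC50 derived from 8-point serial dilution dose curve.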

[2] = target: T1, HCV NS5B (Hepatitis C virus genotype 1b, UniProt Q9WMX2); assay: Inhibition of viral RNA-dependent RNA polymerase (RdRp), in vitro biochemical assay; parameters: species or system HCV genotype 1b virus (BB7); details: HCV NS5B polymerase, BB7 (genotype 1b); values given as range classes A-D; read-out: HCV pol-BB7 IC50
T1 construct: fusion protein, of which the carboxyl terminal 21 amino acids were removed to enhance its solubility; His tag (GSHHHHHH); made in house; host or cells: E. coli
Summary of the method: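 Purified recombinant NS5B from a genotype 1b consensus (BB7), His-tagged, E. coli-expressed, with the C-terminal 21 residues deleted. Inhibition of RdRp activity in vitro was measured, and IC50 is the concentration giving 50% inhibition.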

SMILES | pEC50 [1] | pIC50 [2]
CNC(=O)c1c(-c2ccc(F)cc2)oc2cc(N(C)S(C)(=O)=O)c(OCc3nnsc3Cl)cc12 [Example 397, 5-(5-Chloro-[1,2,3]thiadiazol-4-ylmethoxy)-2-(4-fluoro-phenyl)-6-(methanesulfonyl-methyl-amino)-benzofuran-3-carboxylic acid methylamide] | > 6.00 | ≥ 6.30
CNC(=O)c1c(-c2ccc(F)cc2)oc2cc(N(C)S(C)(=O)=O)c(OCc3nccn3C)cc12 [Example 398, 2-(4-Fluoro-phenyl)-6-(methanesulfonyl-methyl-amino)-5-(1-methyl-1H-imidazol-2-ylmethoxy)-benzofuran-3-carboxylic acid methylamide] | > 6.00 | ≥ 6.30
CNC(=O)c1c(-c2ccc(F)cc2)oc2cc(-c3c(C)noc3C)c(OCc3cscn3)cc12 [Example 401, 6-(3,5-Dimethyl-isoxazol-4-yl)-2-(4-fluoro-phenyl)-5-(thiazol-4-ylmethoxy)-benzofuran-3-carboxylic acid methylamide] | > 6.00 | ≥ 6.30
CNC(=O)c1c(-c2ccc(F)cc2)oc2cc(N(C)S(C)(=O)=O)c(OCc3nnc(N)[nH]3)cc12 [Example 402, 5-(5-Amino-4H-[1,2,4]triazol-3-ylmethoxy)-2-(4-fluoro-phenyl)-6-(methanesulfonyl-methyl-amino)-benzofuran-3-carboxylic acid methylamide] | > 6.00 | ≥ 6.30
CNC(=O)c1c(-c2ccc(F)cc2)oc2cc(N(C)S(C)(=O)=O)c(OCc3nn(C)cc3Cl)cc12 [Example 403, 5-(4-Chloro-1-methyl-1H-pyrazol-3-ylmethoxy)-2-(4-fluoro-phenyl)-6-(methanesulfonyl-methyl-amino)-benzofuran-3-carboxylic acid methylamide] | > 6.00 | ≥ 6.30
CNC(=O)c1c(-c2ccc(F)cc2)oc2cc(N(C)S(C)(=O)=O)c(OCCn3cccn3)cc12 [Example 404, 2-(4-Fluoro-phenyl)-6-(methanesulfonyl-methyl-amino)-5-(2-pyrazol-1-yl-ethoxy)-benzofuran-3-carboxylic acid methylamide] | > 6.00 | ≥ 6.30
CNC(=O)c1c(-c2ccc(F)cc2)oc2cc(N(C)S(C)(=O)=O)c(OCc3ncc[nH]3)cc12 [Example 405, 2-(4-Fluoro-phenyl)-5-(1H-imidazol-2-ylmethoxy)-6-(methanesulfonyl-methyl-amino)-benzofuran-3-carboxylic acid methylamide] | > 6.00 | ≥ 6.30
CNC(=O)c1c(-c2ccc(F)cc2)oc2cc(C3NC(=O)NC3=O)c(OC)cc12 (stereo not shown) [Example 406, 6-(2,5-Dioxo-imidazolidin-4-yl)-2-(4-fluoro-phenyl)-5-methoxy-benzofuran-3-carboxylic acid methylamide] | > 6.00 | 5.30 to 6.30
CNC(=O)c1c(-c2ccc(F)cc2)oc2cc(-c3c(C)noc3C)c(OCc3cc(C)on3)cc12 [Example 409, 6-(3,5-Dimethyl-isoxazol-4-yl)-2-(4-fluoro-phenyl)-5-(5-methyl-isoxazol-3-ylmethoxy)-benzofuran-3-carboxylic acid methylamide] | > 6.00 | ≥ 6.30
CNC(=O)c1c(-c2ccc(F)cc2)oc2cc(-c3c(C)noc3C)c(OCc3nccs3)cc12 [Example 410, 6-(3,5-Dimethyl-isoxazol-4-yl)-2-(4-fluoro-phenyl)-5-(thiazol-2-ylmethoxy)-benzofuran-3-carboxylic acid methylamide] | > 6.00 | ≥ 6.30
CNC(=O)c1c(-c2ccc(F)cc2)oc2cc(N(C)S(C)(=O)=O)c(OCC(=O)Nc3nccs3)cc12 [Example 415, 2-(4-Fluoro-phenyl)-6-(methanesulfonyl-methyl-amino)-5-(thiazol-2-ylcarbamoylmethoxy)-benzofuran-3-carboxylic acid methylamide] | > 6.00 | ≥ 6.30
